What was measured:
primary rat hepatocytes [1] = experiment: TGF-β1-induced apoptosis, percentage of apoptotic cells; type: cell-based; settings: 1 nM TGF-β1 36 hours; 100 μM compound pre-treatment; FIG. 8B
Experimental: Primary rat hepatocytes were isolated from male rats (100-150 grams) by collagenase perfusion (as described by Solá S, et al., 2003, Journal of Biological Chemistry 278: 48831-48838)). Briefly, rats were anesthetized with phenobarbital sodium (100 mg/kg body weight) injected into the peritoneal cavity. After administration of heparin (200 units/kg body weight) in the tail vein, the animal's abdomen was opened and the portal vein exposed and cannulated. The liver was then perfused at 37° C. in situ with a calcium-free Hanks' Balanced Salt Solution (HBSS) for about 10 minutes, and then with 0.05% collagenase type IV in calcium-present HBSS for another 10 minutes. […] Cell viability was determined by trypan blue exclusion and was typically 80-85%. […] Fluorescence was visualized using an Axioskop fluorescence microscope (Carl Zeiss GmbH). Blue-fluorescent nuclei were scored blindly and categorized according to the condensation and staining characteristics of chromatin. […] Five random microscopic fields per sample containing approximately 150 nuclei were counted, and mean values expressed as the percentage of apoptotic nuclei. […] Results are expressed as means±SEM of at least three experiments. *p<0.01 from control; § p<0.05 and †p<0.01 from TGF-β1.

primary rat hepatocytes [2] = experiment: TGF-β1-induced cytotoxicity, LDH release; type: cell-based; settings: 1 nM TGF-β1 36 hours; 100 μM compound; FIG. 8A
Experimental: Primary rat hepatocytes were isolated from male rats (100-150 grams) by collagenase perfusion (as described by Solá S, et al., 2003, Journal of Biological Chemistry 278: 48831-48838)). Briefly, rats were anesthetized with phenobarbital sodium (100 mg/kg body weight) injected into the peritoneal cavity. After administration of heparin (200 units/kg body weight) in the tail vein, the animal's abdomen was opened and the portal vein exposed and cannulated. The liver was then perfused at 37° C. in situ with a calcium-free Hanks' Balanced Salt Solution (HBSS) for about 10 minutes, and then with 0.05% collagenase type IV in calcium-present HBSS for another 10 minutes. […] Cell viability was determined by trypan blue exclusion and was typically 80-85%. […]
The ApoTox-Glo™ Triplex Assay (Promega Corp., Madison, Wis., USA) was used to evaluate cell viability, cytotoxicity and caspase-3/7 activity, according to the manufacturer's protocol, using a GloMax+ Multi Detection System (Promega Corp.). General cell death was also evaluated using the lactate dehydrogenase (LDH) Cytotoxicity Detection Kit^PLUS (Roche Diagnostics GmbH, Mannheim, Germany), following the manufacturer's instructions. […]

7,8-[^2H]-3α,7α-dihydroxy-5β-cholan-24-oic acid/7-[^2H]-3α,7α-dihydroxy-5β-cholan-24-oic acid [Compound 5]
reduction of the percentage of apoptotic cells (primary rat hepatocytes [1]): ~40%
more effective than UDCA at inhibiting TGF-β1-induced LDH release (primary rat hepatocytes [2]): about 10%

C[C@H](CCC(=O)O)[C@H]1CC[C@H]2[C@@H]3[C@@H](O)C[C@@H]4C[C@H](O)CC[C@]4(C)[C@H]3CC[C@]12C [UDCA, Ursodeoxycholic acid, reference compound]
reduction of the percentage of apoptotic cells (primary rat hepatocytes [1]): ~40%

Source: US10144758B2, “Deuterated bile acids” (Metselex, Inc., priority 2013, dated 2018)
